Crop yield data for 1 compound are collected here from patent publication US20110098332A1, “Insecticides for Increasing the Crop Yield” (BASF SE, priority 2007, published 2011).

Test [1] concerns Spring wheat (cultivar Triso). Description: Crop yield increase in spring wheat after seed treatment (field trial). To be noted: seed treatment 100 ml/100 kg seeds (Regent FS 500, 50 g per 100 kg seeds), harvest 130 days after planting. It is filed as in vivo. An excerpt:
(§1) The N-min analysis method used in the examples determines the content of mineral nitrogen compounds in the soil (0-90 cm depth) at the beginning of the vegetative period. For this purpose, samples are taken in a depth of 0 to 90 cm and mineral nitrogen compounds (ammonium compounds and nitrates) are extracted and analyzed. The method is described in R. Thun et al., “Die Untersuchung von Böden, Methodenbuch Bd. 1, 4th edition 1991, edition VDLUFA (Verband Deutscher Landwirtschaftlicher Untersuchungs- and Forschungsanstalten), Darmstadt, Germany.
Spring wheat seeds (cultivar Triso) were treated with fipronil (used as commercially available product Regent FS 500; an FS formulation containing 500 g/l of active compound; 50 g per 100 kg seeds) in a HEGE 11 seed treatment apparatus. A part of the seeds remained untreated (control). Five days after the treatment, the seeds were planted near Gommersheim, Palatine, Germany, in a loamy sand with a pH of 6.7, and a tilling depth of 30 cm. Nitrogen content following N-min analysis was 52 kg N per ha in 0 to 90 cm depth. 400 seeds per m^2 were sown in 1.86 m by 5.5 m plots. Row spacing was 13 cm and seeding depth 3 cm. The treatments were supplied with either standard amount of nitrogen (140 kg N/ha) or reduced amount of nitrogen (30 kg N/ha). 130 days after planting, the wheat grains were harvested and weighed.

Test [2] concerns Winter wheat (cultivar Türkis). In words: Crop yield in winter wheat after seed treatment (field trial). The conditions noted are these: seed treatment 50 ml/100 kg seeds (Regent FS 500, 25 g per 100 kg seeds), harvest 269 days after planting. The format is in vivo.
Text: as §1
Winter wheat seeds (cultivar Türkis) were treated with fipronil (used as commercially available product Regent FS 500; an FS formulation containing 500 g/l of active ccompound; 25 g per 100 kg seeds) in a HEGE 11 seed treatment apparatus. A part of the seeds remained untreated (control). Two days after the treatment, the seeds were planted in Böhl, Palatine, Germany, in a loamy sand with a pH of 6.7, and a tilling depth of 30 cm. Nitrogen content following N-min analysis was 26 kg N per ha in 0 to 90 cm depth. 400 seeds per m^2 were sown in 1.86 m by 5.5 m plots. Row spacing was 13 cm and seeding depth 3 cm. The treatments were supplied with either standard amount of nitrogen (180 kg N/ha) or reduced amount of nitrogen (50 kg N/ha). 269 days after planting, the wheat grains were harvested and weighed.

Take `N#Cc1nn(-c2c(Cl)cc(C(F)(F)F)cc2Cl)c(N)c1[S+]([O-])C(F)(F)F` (stereo not shown) [fipronil]: the Crop yield amounted to 51.4 dt/ha in test [1] (reduced nitrogen (30 kg N/ha), control 47.0); 63.2 dt/ha in test [1] (standard nitrogen (140 kg N/ha), control 62.8); 86.1 dt/ha in test [2] (reduced nitrogen (50 kg N/ha), control 82.6); 87.4 dt/ha in test [2] (standard nitrogen (180 kg N/ha), control 87.4).
